Type in all cases: cell-based
One assay has as its target T1, KRAS (Homo sapiens, UniProt P01116).
T1 construct: endogenous in cells; host or cells: KE39 (KRAS amplified) cells
In words: KRASamp MSD assay. To be noted: KE39 (KRAS amplified) cells, treated with test compounds for 24 hr, MSD readout of KRAS degradation. The method, boiled down:
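KRAS-amplified KE39 cells treated with compound for 24 hr, then lysed in RIPA buffer with protease/phosphatase inhibitors. KRAS protein measured by MSD sandwich immunoassay against a recombinant WT KRAS standard curve; DC50 derived from curve fitting of degradation.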

A further assay deals with T2, KRAS G12V (Homo sapiens, UniProt P01116, G12V).
T2 construct: SW620-KRAS (G12V)-HiBit-KI cell (Pharmaron); host or cells: SW620-KRAS (G12V)-HiBit-KI cells (HiBiT knock-in at the endogenous KRAS locus)
The experiment in a line: KRAS G12V HiBit assay. To be noted: SW620-KRAS (G12V)-HiBit-KI cells, compound treatment for 24 hours. The gist of the method:
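HiBiT-tagged KRAS G12V cells treated 24 h with compound in a 3-fold, 10-point series (0.3 mM DMSO stock); lytic HiBiT reagent with LgBiT added after 15 min room-temperature equilibration. Degradation calculated against 0.1% DMSO high control.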
A general note: With HiBiT, luminescence reflects the tagged protein that the partner subunit can reach.

The next assay concerns the target T3, KRAS G12D (Homo sapiens, UniProt P01116, G12D).
T3 construct: AsPc-1-KRAS (G12D)-HiBit-KI cell (Pharmaron); host or cells: AsPc-1-KRAS (G12D)-HiBit-KI cells (HiBiT knock-in at the endogenous KRAS locus)
In words: KRAS G12D HiBit assay. The settings on record: AsPc-1-KRAS (G12D)-HiBit-KI cell, compound treatment for 24 hours; for DC50: absolute DC50. The gist of the method: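 Cells were treated for 24 h with compounds in a 3-fold, 10-point dilution series from a 0.3 mM DMSO stock, then equilibrated 15 min at room temperature. KRAS G12D HiBiT levels were read by luminescence after lytic Nano-Glo HiBiT reagent with LgBiT; inhibition calculated relative to 0.1% DMSO high control.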

T3 sequence (P01116 1-188 isoform P01116-2 G12D): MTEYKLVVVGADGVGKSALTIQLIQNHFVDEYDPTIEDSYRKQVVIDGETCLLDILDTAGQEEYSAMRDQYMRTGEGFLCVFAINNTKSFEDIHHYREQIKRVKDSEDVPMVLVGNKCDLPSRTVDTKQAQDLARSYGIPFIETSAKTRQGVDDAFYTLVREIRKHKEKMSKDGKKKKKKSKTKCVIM
T2 sequence (P01116 1-188 isoform P01116-2 G12V): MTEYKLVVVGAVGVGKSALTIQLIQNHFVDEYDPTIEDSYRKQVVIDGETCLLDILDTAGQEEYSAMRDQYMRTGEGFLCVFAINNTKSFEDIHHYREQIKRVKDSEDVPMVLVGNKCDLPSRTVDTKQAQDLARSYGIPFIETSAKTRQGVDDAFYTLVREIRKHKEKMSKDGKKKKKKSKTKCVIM
T1 sequence (P01116 1-188 isoform P01116-2): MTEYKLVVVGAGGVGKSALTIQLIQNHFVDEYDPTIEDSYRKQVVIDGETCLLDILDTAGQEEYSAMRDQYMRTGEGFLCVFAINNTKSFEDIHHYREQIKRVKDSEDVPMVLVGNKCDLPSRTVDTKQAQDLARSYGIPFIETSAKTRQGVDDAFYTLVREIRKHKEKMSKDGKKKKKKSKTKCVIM

Consider `CCc1c(F)ccc2cc(O)cc(-c3ncc4c(N5CCC[C@@](C)(O)C5)nc(OC[C@@]56CCCN5[C@H](COC(=O)Nc5ccc(CN7CCC(c8ccc9c(c8)n(C)c(=O)n9C8CCC(=O)NC8=O)CC7)cc5)CC6)nc4c3F)c12` (stereo partly drawn) [Compound 450, ((3S,7aS)-7a-(((7-(8-ethyl-7-fluoro-3-hydroxynaphthalen-1-yl)-8-fluoro-4-((R)-3-hydroxy-3-methylpiperidin-1-yl)pyrido[4,3-d]pyrimidin-2-yl)oxy)methyl)hexahydro-1H-pyrrolizin-3-yl)methyl (4-((4-(1-(2,6-dioxopiperidin-3-yl)-3-methyl-2-oxo-2,3-dihydro-1H-benzo[d]imidazol-5-yl)piperidin-1-yl)methyl)phenyl)carbamate], for which the DC50 is below 1 nM at KRAS, below 10 nM on KRAS G12V (class symbols) and below 100 nM on KRAS G12D (class symbols).
In the case of `CCc1c(F)ccc2cc(O)cc(-c3cc4nc(OC[C@@]56CCCN5[C@H](COC(=O)N5CCC(CN7CCC(c8ccc9c(c8)n(C)c(=O)n9C8CCC(=O)NC8=O)CC7)CC5)CC6)nc(N5CCC[C@@](C)(O)C5)c4cn3)c12` (stereo partly drawn) [Compound 377, ((3S,7aS)-7a-(((7-(8-ethyl-7-fluoro-3-hydroxynaphthalen-1-yl)-4-((R)-3-hydroxy-3-methylpiperidin-1-yl)pyrido[4,3-d]pyrimidin-2-yl)oxy)methyl)hexahydro-1H-pyrrolizin-3-yl)methyl 4-((4-(1-(2,6-dioxopiperidin-3-yl)-3-methyl-2-oxo-2,3-dihydro-1H-benzo[d]imidazol-5-yl)piperidin-1-yl)methyl)piperidine-1-carboxylate], the values for the DC50 at KRAS, on KRAS G12V (class symbols) and on KRAS G12D (class symbols) were below 1 nM, below 10 nM and below 100 nM, respectively.
For `CCc1c(F)ccc2cc(O)cc(-c3ncc4c(N5CCC[C@@](C)(O)C5)nc(OC[C@@]56CCCN5[C@H](COC(=O)N5CCC7(CC5)CC(N5CCC(c8ccc9c(c8)n(C)c(=O)n9C8CCC(=O)NC8=O)CC5)C7)CC6)nc4c3F)c12` (stereo partly drawn) [Compound 159, ((3S,7aS)-7a-(((7-(8-Ethyl-7-fluoro-3-hydroxynaphthalen-1-yl)-8-fluoro-4-((R)-3-hydroxy-3-methylpiperidin-1-yl)pyrido[4,3-d]pyrimidin-2-yl)oxy)methyl)hexahydro-1H-pyrrolizin-3-yl)methyl2-(4-(1-(2,6-dioxopiperidin-3-yl)-3-methyl-2-oxo-2,3-dihydro-1H-benzo[d]imidazol-5-yl)piperidin-1-yl)-7-azaspiro[3.5]nonane-7-carboxylate], the figures for the DC50 on KRAS, on KRAS G12V (class symbols) and at KRAS G12D (class symbols) were below 1 nM, below 10 nM and below 100 nM, respectively.
In the case of `C#Cc1c(F)ccc2cccc(-c3ncc4c(N5CCC[C@@](C)(O)C5)nc(OCC5(CN6CCC7(CC6)CN(c6ccc8c(c6)n(C)c(=O)n8C6CCC(=O)NC6=O)C7)CC5)nc4c3F)c12` (stereo partly shown) [Compound 40], the values for the DC50 at KRAS, at KRAS G12V (class symbols) and at KRAS G12D (class symbols) were at least 10 nM, above 100 nM and above 300 nM, respectively.
On the same counts, the results for `CCc1c(F)ccc2cc(O)cc(-c3ccc4c(N5CCC[C@@](C)(O)C5)nc(OC[C@@]56CCCN5[C@H](COC(=O)N5CCC(CN7CCC(c8cc9c(cc8F)n(C8CCC(=O)NC8=O)c(=O)n9C)CC7)CC5)CC6)nc4c3F)c12` (stereo partly drawn) [Compound 424, ((3S,7aS)-7a-(((7-(8-ethyl-7-fluoro-3-hydroxynaphthalen-1-yl)-8-fluoro-4-((R)-3-hydroxy-3-methylpiperidin-1-yl)quinazolin-2-yl)oxy)methyl)hexahydro-1H-pyrrolizin-3-yl)methyl 4-((4-(1-(2,6-dioxopiperidin-3-yl)-6-fluoro-3-methyl-2-oxo-2,3-dihydro-1H-benzo[d]imidazol-5-yl)piperidin-1-yl)methyl)piperidine-1-carboxylate] are below 1 nM, below 10 nM and below 100 nM.
For the compound `CCc1c(F)ccc2cc(O)cc(-c3ncc4c(N5CCC[C@@](C)(O)C5)nc(OC[C@@]56CCCN5[C@H](COC(=O)N5CCC(CC7CCN(c8ccc9c(c8)n(C)c(=O)n9C8CCC(=O)NC8=O)CC7)CC5)CC6)nc4c3F)c12` (stereo partly drawn) [Compound 98, [(3S,8S)-8-[[7-(8-ethyl-7-fluoro-3-hydroxy-1-naphthyl)-8-fluoro-4-[(3R)-3-hydroxy-3-methyl-1-piperidyl]pyrido[4,3-d]pyrimidin-2-yl]oxymethyl]-1,2,3,5,6,7-hexahydropyrrolizin-3-yl]methyl 4-[[1-[1-(2,6-dioxo-3-piperidyl)-3-methyl-2-oxo-benzimidazol-5-yl]-4-piperidyl]methyl]piperidine-1-carboxylate], the DC50 at KRAS is below 1 nM; on KRAS G12V (class symbols) it was below 10 nM; at KRAS G12D (class symbols), below 100 nM. Also, on KRAS G12D (class symbols), the Dmax is above 50%.
`CCc1c(F)ccc2cc(O)cc(-c3ncc4c(N5CCC[C@@](C)(O)C5)nc(OC[C@@]56CCCN5C(CN5CCC(OCCCc7ccc8c(c7)n(C)c(=O)n8C7CCC(=O)NC7=O)CC5)CC6)nc4c3F)c12` (stereo partly drawn) [Compound 384, 3-(5-(3-((1-(((35,7aS)-7a-(((7-(8-Ethyl-7-fluoro-3-hydroxynaphthalen-1-yl)-8-fluoro-4-((R)-3-hydroxy-3-methylpiperidin-1-yl)pyrido[4,3-d]pyrimidin-2-yl)oxy)methyl)hexahydro-1H-pyrrolizin-3-yl)methyl)piperidin-4-yl)oxy)propyl)-3-methyl-2-oxo-2,3-dihydro-1H-benzo[d]imidazol-1-yl) piperidine-2,6-dione]: the DC50 at KRAS was 1 to 10 nM; on KRAS G12V (class symbols), 10 to 100 nM; on KRAS G12D (class symbols), below 100 nM.
On the same counts, the results for `C#Cc1c(F)ccc2cc(O)cc(-c3ncc4c(N5CCC[C@@](C)(O)C5)nc(OC[C@@]56CCCN5[C@H](COC(=O)N5CCC(OCCC#Cc7ccc8c(c7)n(C)c(=O)n8C7CCC(=O)NC7=O)CC5)CC6)nc4c3F)c12` (stereo partly drawn) [Compound 369, ((3S,7aS)-7a-(((7-(8-ethynyl-7-fluoro-3-hydroxynaphthalen-1-yl)-8-fluoro-4-((R)-3-hydroxy-3-methylpiperidin-1-yl)pyrido[4,3-d]pyrimidin-2-yl)oxy)methyl)hexahydro-1H-pyrrolizin-3-yl)methyl 4-((4-(1-(2,6-dioxopiperidin-3-yl)-3-methyl-2-oxo-2,3-dihydro-1H-benzo[d]imidazol-5-yl)but-3-yn-1-yl)oxy)piperidine-1-carboxylate] are 1 to 10 nM, below 10 nM and below 100 nM.
On to `CCc1c(F)ccc2cc(O)cc(-c3ncc4c(N5CCCC(F)(F)C5)nc(OC[C@@]56CCCN5[C@H](COC(=O)N5CCC7(CC5)CC(N5CCC(c8ccc9c(c8)n(C)c(=O)n9C8CCC(=O)NC8=O)CC5)C7)CC6)nc4c3F)c12` (stereo partly drawn) [Compound 470, ((3S,7aS)-7a-(((4-(3,3-difluoropiperidin-1-yl)-7-(8-ethyl-7-fluoro-3-hydroxynaphthalen-1-yl)-8-fluoropyrido[4,3-d]pyrimidin-2-yl)oxy)methyl)hexahydro-1H-pyrrolizin-3-yl)methyl 2-(4-(1-(2,6-dioxopiperidin-3-yl)-3-methyl-2-oxo-2,3-dihydro-1H-benzo[d]imidazol-5-yl)piperidin-1-yl)-7-azaspiro[3.5]nonane-7-carboxylate], for which the DC50 is below 1 nM at KRAS, below 10 nM on KRAS G12V (class symbols) and below 100 nM on KRAS G12D (class symbols).
Take `C#Cc1c(F)ccc2cccc(-c3ncc4c(N5CCC[C@@](C)(O)C5)nc(OC[C@]56CCCN5[C@H](COC(=O)N5CCC(CN7CCC(c8ccc9c(c8)n(C)c(=O)n9C8CCC(=O)NC8=O)CC7)CC5)CC6)nc4c3F)c12` (stereo partly shown) [Compound 141]: the results for the DC50 on KRAS, at KRAS G12V (numeric bounds) and on KRAS G12D (numeric bounds given in place of class symbols) were below 1 nM, above 79.2 nM and above 100 nM, respectively.
In the case of `CCc1c(F)ccc2cc(O)cc(-c3ncc4c(N5CCCC(F)(F)C5)nc(OC[C@@]56CCCN5[C@H](COC(=O)N5CCC(CN7CCC(c8ccc9c(c8)n(C)c(=O)n9C8CCC(=O)NC8=O)CC7)CC5)CC6)nc4c3F)c12` (stereo partly drawn) [Compound 437, ((3S,7aS)-7a-(((4-(3,3-difluoropiperidin-1-yl)-7-(8-ethyl-7-fluoro-3-hydroxynaphthalen-1-yl)-8-fluoropyrido[4,3-d]pyrimidin-2-yl)oxy)methyl)hexahydro-1H-pyrrolizin-3-yl)methyl 4-((4-(1-(2,6-dioxopiperidin-3-yl)-3-methyl-2-oxo-2,3-dihydro-1H-benzo[d]imidazol-5-yl)piperidin-1-yl)methyl)piperidine-1-carboxylate], the figures for the DC50 at KRAS, at KRAS G12V (class symbols) and at KRAS G12D (class symbols) were below 1 nM, below 10 nM and below 100 nM, respectively.
For the compound `C#Cc1c(F)ccc2cc(O)cc(-c3ncc4c(N5CCC[C@@](C)(O)C5)nc(OC[C@@]56CCCN5[C@H](COC(=O)N5CCC(COC7CN(c8ccc9c(c8)n(C)c(=O)n9C8CCC(=O)NC8=O)C7)CC5)CC6)nc4c3F)c12` (stereo partly shown) [Compound 132], the DC50 at KRAS was 1 to 10 nM; at KRAS G12V (class symbols) it was below 10 nM; on KRAS G12D (class symbols), below 100 nM.

The values are drawn from patent US12599672B2, “KRAS proteolysis targeting chimeras” (PAQ Therapeutics Inc., priority 2023, dated 2026).
